In US20220338473A1, “USE OF BENZYL ALCOHOL AS A HERBICIDE” (INNOVI, priority 2019, published 2022):

Columns and labels:
Soybean seeds = assay: Preventative activity (anti-germination), seeds on agar in Petri dish; type: in vivo; details: 0.35 g sprayed (benzyl alcohol pure, 700 L/Ha; glyphosate diluted at 0.5%)
Method: (§1) The assays were carried out on seeds sown on a Petri dish with respectively a control mode, an assay with benzyl alcohol and an assay with glyphosate herbicide (Gallup® super 360, Barclay).
(§2) The application of the product is carried out with a trigger spray bottle which makes it possible to spray 0.35 g of product per spraying, as microdroplets.
(§3) Seeds are placed on an agar gel in Petri dishes. 16 barley seeds, 24 rapeseed seeds, 18 wheat seeds, 10 maize seeds, 10 soybean seeds are positioned for each test.
(§4) The seeds are sprinkled either with 0.35 g water (equivalent 700 L/Ha) including 0.35 g pure benzyl alcohol (PanReac AppliChem—ITW Reagents) (equivalent 700 L/Ha pure benzyl alcohol), or with 0.35 g water for the control, or with 0.35 g glyphosate diluted at 0.5% for the glyphosate test.
(§5) The plants are observed at 0 and 11 days. The percentage of germination is the percentage of germinated seeds evaluated after 11 days.

Wheat seeds = assay: as above; type: in vivo; details: 0.35 g sprayed (benzyl alcohol pure, 700 L/Ha; glyphosate diluted at 0.5%)
Method: as §1, §2, §3, §4, §5

Rapeseed seeds = assay: as above; type: in vivo; details: 0.35 g sprayed (benzyl alcohol pure, 700 L/Ha; glyphosate diluted at 0.5%)
Method: as §1, §2, §3, §4, §5

Barley seeds [1] = assay: as above; type: in vivo; details: 0.35 g sprayed (benzyl alcohol pure, 700 L/Ha; glyphosate diluted at 0.5%)
Method: as §1, §2, §3, §4, §5

Maize seeds = assay: as above; type: in vivo; details: 0.35 g sprayed (benzyl alcohol pure, 700 L/Ha; glyphosate diluted at 0.5%)
Method: as §1, §2, §3, §4, §5

Dandelion seeds = assay: as above; type: in vivo; details: 0.35 g sprayed (benzyl alcohol pure, 700 L/Ha; glyphosate diluted at 0.5%)
Grass = assay: Non-selective activity on herbaceous plants (spraying, potted); type: in vivo, grass of the ryegrass type; details: 4 g benzyl alcohol (200 L/Ha) in 8 g total (400 L/Ha)
Method: (§6) The non-selective character of benzyl alcohol was studied on 3 common varieties of herbaceous plants, two dicotyledons (dandelions and clover) and a monocotyledon (grass).
The grass of the ryegrass type makes it possible to confirm that the spectrum of action of benzyl alcohol is broad.
(§7) The assays were carried out on potted plants. The application of the product is carried out with a trigger spray bottle which makes it possible to spray 1 g of product per spraying, as microdroplets.
(§8) The treated plants are sprinkled with different quantities of water comprising different quantities of pure benzyl alcohol (PanReac AppliChem—ITW Reagents). The untreated (control) plants are sprinkled with the same total quantity of water only.
(§9) The plants are observed at the following times: T0, 6 h, 24 h, 48 h, 72 h, 96 h. The collapsing of the plant, the colour intensity and the diameter of the plant were measured as indicated in Example 1.

Brambles = assay: Non-selective activity on brambles (spraying, potted); type: in vivo; details: 12 g pure benzyl alcohol (600 L/Ha) in 16 g product (800 L/Ha)
Method: (§10) The assays were carried out on potted plants.
The application of the product is carried out with a trigger spray bottle which makes it possible to spray 1 g of product per spraying, as microdroplets. The treated plants are sprinkled with different quantities of water comprising different quantities of pure benzyl alcohol (PanReac AppliChem—ITW Reagents). The untreated (control) plants are sprinkled with the same total quantity of water only.
The brambles are sprinkled with: • 16 g of product (equivalent to 800 L/Ha) including 12 g pure benzyl alcohol for the treated plant (equivalent to 600 L/Ha pure benzyl alcohol), and • 16 g water for the control plants.
The collapsing of the plant, the colour intensity and the diameter of the plant were measured as indicated in Example 1.

Barley seeds [2] = assay: Pre-emergence herbicide activity: germination of seeds sown at different depths; type: in vivo
Method: as §10
Pure benzyl alcohol was used (PanReac AppliChem—ITW Reagents). The application of the product is carried out with a trigger spray bottle which makes it possible to spray 1 g of product per spraying as microdroplets.
Barley seeds (50 seeds per condition) are sown in potting soil at different depths (1, 2 and 3 cm). Then, 100% benzyl alcohol is sprayed on the earth (above the seeds) at different concentrations (10, 25, 50, 100, 200, 300 L/Ha).
The state of germination is observed at 0 and 11 days. The percentage of germination is the percentage of germinated seeds evaluated after 11 days.
The percentage of seeds germinated under each of the conditions is determined and if it is below 70%, pre-emergence use is not recommended.

Clover = assay: Non-selective activity on herbaceous plants (spraying, potted); type: in vivo; details: 4 g benzyl alcohol (200 L/Ha) in 8 g total (400 L/Ha)
Method: as §6, §7, §8, §9

Dandelion = assay: as above; type: in vivo; details: 4 g benzyl alcohol (200 L/Ha) in 8 g total (400 L/Ha)
Method: as §6, §7, §8, §9

Horned pansy = assay: Systemic action through contact with the underground parts (saucer, capillary uptake); type: in vivo; details: potted, saucer containing 40 g pure benzyl alcohol, uptake via roots
Method: as §10
Pure benzyl alcohol was used (PanReac AppliChem—ITW Reagents).
Two potted plants (Horned pansy) were each placed in a saucer containing respectively 40 g pure benzyl alcohol or 40 g water (control). By capillary action, the liquids contained in the saucer are absorbed by the earth and come into contact with the roots.
The systemic effectiveness time, the collapsing of the plant, the colour intensity and the diameter of the plant were measured as indicated in Examples 1 and 2.

`OCc1ccccc1` [benzyl alcohol] was tested, and the “Percentage of germination at 11 days” value (Soybean seeds) was 0%, the “Percentage of germination at 11 days” value (Wheat seeds) was 0% and the “Percentage of germination at 11 days” value (Rapeseed seeds) was 0%. For the same compound, the “Percentage of germination at 11 days” value (Barley seeds [1]) was 0%, the “Percentage of germination at 11 days” value (Maize seeds) was 0% and the “Percentage of germination at 11 days” value (Dandelion seeds) was 0%. The “Collapsing (score and time): time to pass from score 5 (T0) to score 1” value (“Collapsing (score and time): time” below) (Grass) was 1 to 48 h, the “Colour intensity (score and time): time to pass from score 5 (T0) to score 1” value (shortened to “Colour intensity (score and time): time”) (Grass) was 1 to 24 h and the “Diameter (score and time): time to pass from score 5 (T0) to score 1” value (shortened to “Diameter (score and time): time to pass”) (Grass) was 1 to 48 h. The “Collapsing: time to pass from a score of 5 to a score of 1” value (Brambles) was 144 h, the “Colour intensity: time to pass from a score of 5 to a score of 1” value (Brambles) was 96 h and the “Pre-emergence use prescribed (germination of sown seeds at 11 days not below 70%)” value (Barley seeds [2]; seeding depth 1 cm, 50 L/Ha benzyl alcohol sprayed on the earth) was “yes (pre-emergence use is prescribed)”. For the same compound, the “Pre-emergence use prescribed (germination of sown seeds at 11 days not below 70%)” value (Barley seeds [2]; seeding depth 1 cm, 100 L/Ha benzyl alcohol sprayed on the earth) was “no (pre-emergence use is not recommended)”, the “Pre-emergence use prescribed (germination of sown seeds at 11 days not below 70%)” value (Barley seeds [2]; seeding depth 1 cm, less than 50 L/Ha benzyl alcohol sprayed on the earth) was “yes (pre-emergence use is prescribed)” and the “Pre-emergence use prescribed (germination of sown seeds at 11 days not below 70%)” value (Barley seeds [2]; seeding depth 2 cm, 50 L/Ha benzyl alcohol sprayed on the earth) was “yes (pre-emergence use is prescribed)”. The “Pre-emergence use prescribed (germination of sown seeds at 11 days not below 70%)” value (Barley seeds [2]; seeding depth 2 cm, 100 L/Ha benzyl alcohol sprayed on the earth) was “yes (pre-emergence use is prescribed)”, the “Pre-emergence use prescribed (germination of sown seeds at 11 days not below 70%)” value (Barley seeds [2]; seeding depth 2 cm, less than 50 L/Ha benzyl alcohol sprayed on the earth) was “yes (pre-emergence use is prescribed)” and the “Pre-emergence use prescribed (germination of sown seeds at 11 days not below 70%)” value (Barley seeds [2]; seeding depth 3 cm, 50 L/Ha benzyl alcohol sprayed on the earth) was “yes (pre-emergence use is prescribed)”. The “Pre-emergence use prescribed (germination of sown seeds at 11 days not below 70%)” value (Barley seeds [2]; seeding depth 3 cm, 100 L/Ha benzyl alcohol sprayed on the earth) was “yes (pre-emergence use is prescribed)”, the “Pre-emergence use prescribed (germination of sown seeds at 11 days not below 70%)” value (Barley seeds [2]; seeding depth 3 cm, less than 50 L/Ha benzyl alcohol sprayed on the earth) was “yes (pre-emergence use is prescribed)” and the “Collapsing (score and time): time” value (Clover) was 1 to 48 h. The “Colour intensity (score and time): time” value (Clover) was 1 to 24 h, the “Diameter (score and time): time to pass” value (Clover) was 1 to 48 h and the “Collapsing (score and time): time” value (Dandelion) was 1 to 48 h. For the same compound, the “Colour intensity (score and time): time” value (Dandelion) was 1 to 24 h, the “Diameter (score and time): time to pass” value (Dandelion) was 1 to 48 h and the “Collapsing: time to pass from a score of 5 to a score of 1” value (Horned pansy) was 72 h. For the same compound, the “Colour intensity: time to pass from a score of 5 to a score of 1” value (Horned pansy) was 48 h, the “Diameter of the plant: time to pass from a score of 5 to a score of 1” value (Horned pansy) was 96 h and the “Systemic effectiveness time: the whole plant is affected” value (Horned pansy) was 48 h.
